Read-outs that look alike come from different tables or passages of the source.
Columns and labels:
[1] = molecular target: GSK3b (GST-full length GSK3b) (Homo sapiens (Human), UniProt P49841); experiment: GSK3b TR-FRET kinase assay; assay type: biochemical
Procedure: (§1) TR-FRET Assay: The assay was performed in a white, 384 well, low volume, flat bottom plate (Grenier). After a 30 minute preincubation in assay buffer with the indicated concentration of compound, the kinase activity was initiated by the addition of the substrates. 1 nM GSK3α (GST-full length GSK3α [SignalChem G08-10G]) or 1 nM GSK3b (GST-full length GSK3b: [SignalChem G08-9G]) were then incubated at ambient temperature for 100 minutes in 10 μL of 50 mM Tris, pH 7.5, 20 mM MgCl2, 0.05 mM DTT, 100 μg/mL BSA and 1% DMSO, with 200 nM biotinylated peptide substrate (biotinylated and S645 phosphorylated glycogen synthase 631-650) and either 4 μM ATP (GSK3α, Table 16) or 2 μM ATP (GSK3b, Table 16) or 1 mM ATP (Table 17). The kinase activity was quenched with 2 μL of 250 mM EDTA. A 10 μL volume of 40 nM Strepavidin-d2, 2 nM Tb^2+-pSer641 antibody in TR-FRET Detection Buffer (Invitrogen) was then added. After 60 min at room temperature the plate was read on Envision plate reader using Ex: 340 nm, Em: 615 nm and […]. The normalized 665/615 Signal ratio versus log compound concentration was analyzed by XLFIT to yield IC50 values.

[2] = molecular target: GSK3α (GST-full length GSK3α) (Homo sapiens (Human), UniProt P49840); experiment: GSK3α TR-FRET kinase assay; assay type: biochemical
Procedure: as §1

[3] = read-out: GSK3-B (TR-FRET 1 mM ATP), GMean, IC50, 1 mM ATP, geometric mean
[4] = read-out: GSK3-A (TR-FRET 1 mM ATP), GMean, IC50, 1 mM ATP, geometric mean
[5] = 1 nM GSK3b, 2 μM ATP, 30 minute preincubation, geometric mean, read-out: GSK3-B TR-FRET BIOCHEMICAL (TR-FRET), GMean, IC50
[6] = 1 nM GSK3α, 4 μM ATP, 30 minute preincubation, geometric mean, read-out: GSK3-A TR-FRET BIOCHEMICAL (TR-FRET), GMean, IC50
[7] = 1 nM GSK3b, 2 μM ATP, 30 minute preincubation, Table 16, read-out: GSK3-B TR-FRET BIOCHEMICAL (TR-FRET)
[8] = 1 nM GSK3α, 4 μM ATP, 30 minute preincubation, Table 16, read-out: GSK3-A TR-FRET BIOCHEMICAL (TR-FRET)

GSK3α (GST-full length GSK3α), sequence (P49840 whole entry): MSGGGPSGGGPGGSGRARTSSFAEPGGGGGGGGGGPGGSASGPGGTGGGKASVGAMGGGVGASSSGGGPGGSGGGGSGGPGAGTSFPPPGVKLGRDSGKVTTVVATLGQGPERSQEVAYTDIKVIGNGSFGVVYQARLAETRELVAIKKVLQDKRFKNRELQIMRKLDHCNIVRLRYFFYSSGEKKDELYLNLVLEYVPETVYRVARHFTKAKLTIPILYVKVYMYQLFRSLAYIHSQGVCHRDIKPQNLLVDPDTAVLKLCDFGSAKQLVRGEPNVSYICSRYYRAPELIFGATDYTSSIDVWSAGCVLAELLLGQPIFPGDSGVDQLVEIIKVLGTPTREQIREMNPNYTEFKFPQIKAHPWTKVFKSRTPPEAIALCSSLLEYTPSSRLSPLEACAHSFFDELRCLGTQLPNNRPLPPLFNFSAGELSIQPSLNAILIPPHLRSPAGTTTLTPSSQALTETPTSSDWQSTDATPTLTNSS
GSK3b (GST-full length GSK3b), sequence (P49841 whole entry): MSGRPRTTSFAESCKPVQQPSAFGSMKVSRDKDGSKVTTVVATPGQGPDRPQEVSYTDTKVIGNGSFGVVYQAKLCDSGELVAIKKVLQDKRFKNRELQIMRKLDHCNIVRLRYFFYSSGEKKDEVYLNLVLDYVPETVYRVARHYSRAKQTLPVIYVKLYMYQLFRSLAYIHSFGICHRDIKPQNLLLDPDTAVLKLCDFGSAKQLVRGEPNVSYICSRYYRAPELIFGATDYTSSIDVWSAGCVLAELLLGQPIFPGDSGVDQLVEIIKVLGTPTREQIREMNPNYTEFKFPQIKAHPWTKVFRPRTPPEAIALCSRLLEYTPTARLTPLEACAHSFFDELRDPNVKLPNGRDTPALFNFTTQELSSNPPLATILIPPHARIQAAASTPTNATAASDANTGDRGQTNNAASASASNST

| Structure (SMILES) | IC50 [1, 3] [µM] | IC50 [2, 4] [µM] | IC50 [1, 5] [µM] | IC50 [2, 6] [µM] | further results |
| --- | --- | --- | --- | --- | --- |
| CC1(C)CC2=C(C(=O)N1)[C@](C)(c1cccc(S(C)(=O)=O)c1)c1c(n[nH]c1C1CC1)N2 [Compound 114744] | – | – | – | – | IC50 ([1]; GSK3-B (TR-FRET 1 mM ATP), GMean, IC50, 1 mM ATP, geometric mean): > 5 µM; IC50 ([2]; GSK3-A (TR-FRET 1 mM ATP), GMean, IC50, 1 mM ATP, geometric mean): > 5 µM |
| CC(C)(C)Cc1[nH]nc2c1C1(COc3ccccc31)C1=C(CC(C)(C)CC1=O)N2 (stereo not shown) [Compound 117093] | 0.1 to 1 | 1 to 5 | – | – | – |
| Cn1cncc1-c1cccc([C@@]2(C)C3=C(CC(C)(C)CC3=O)Nc3n[nH]c(CC(C)(C)C)c32)c1 [Compound 126015] | > 5 | > 5 | – | – | – |
| C[S+]([O-])c1cccc(C2(C)C3=C(CC(C)(C)CC3=O)Nc3n[nH]c(CC(C)(C)C)c32)c1 (stereo not shown) [Compound 126191] | 0.1 to 1 | > 5 | – | – | – |
| CCC1(c2ccc(F)cc2)C2=C(CC(C)(C)CC2=O)Nc2n[nH]cc21 (stereo not shown) [Compound 772965] | – | – | > 5 | 1 to 5 | – |
| CCC1(c2cccc(C)c2)C2=C(CC(C)(C)CC2=O)Nc2n[nH]cc21 (stereo not shown) [Compound 785738] | – | – | 0.1 to 1 | ≤ 0.1 | – |
| CCC1(CC)C2=C(CC(C)(C)CC2=O)Nc2n[nH]c(C)c21 [Compound 786061] | – | – | – | – | IC50 [1, 7]: > 1.67 µM; IC50 [2, 8]: 0.1 to 1 µM |
| CC1(C)CC(=O)C2=C(C1)Nc1n[nH]cc1C2(C)C [Compound 786065] | – | – | – | – | IC50 ([1]; 1 nM GSK3b, 2 μM ATP, 30 minute preincubation, Table 16, read-out: GSK3-B TR-FRET BIOCHEMICAL (TR-FRET), IC50): > 1.67 µM; IC50 ([2]; 1 nM GSK3α, 4 μM ATP, 30 minute preincubation, Table 16, read-out: GSK3-A TR-FRET BIOCHEMICAL (TR-FRET), IC50): 1 to 5 µM |
| Cc1[nH]nc2c1C1(CCCC1)C1=C(CC(C)(C)CC1=O)N2 [Compound 786072] | – | – | – | – | IC50 [1, 7]: ≤ 0.1 µM; IC50 [2, 8]: ≤ 0.1 µM |
| CC[C@@]1(c2ccccc2)C2=C(C[C@H](C)CC2=O)Nc2n[nH]cc21 [Compound 789009] | – | – | > 5 | > 5 | – |
| CC[C@]1(c2ccccc2)C2=C(C[C@H](C)CC2=O)Nc2n[nH]cc21 [Compound 789011] | – | – | > 5 | > 5 | – |
| CC[C@]1(c2ccccc2)C2=C(C[C@H](C)CC2=O)Nc2n[nH]cc21 [Compound 789013] | – | – | > 5 | 0.1 to 1 | – |
| C[C@@H]1CC(=O)C2=C(C1)Nc1n[nH]cc1[C@]2(C)c1ccccc1 [Compound 789331] | – | – | > 5 | > 5 | – |

Continued, in another order:

| IC50 [1, 3] [µM] | IC50 [2, 4] [µM] | IC50 [1, 5] [µM] | IC50 [2, 6] [µM] | Structure (SMILES) | further results |
| --- | --- | --- | --- | --- | --- |
| 0.1 to 1 | 1 to 5 | – | – | CN1CC2(C3=C(CC(C)(C)CC3=O)Nc3n[nH]c(C4CC(F)(F)C4)c32)c2ccccc21 (stereo not shown) [Compound 119047] | – |
| 1 to 5 | > 5 | – | – | CN1CC2(C3=C(CC(C)(C)CC3=O)Nc3n[nH]c(CC(C)(C)C)c32)c2ccccc21 (stereo not shown) [Compound 125979] | – |
| > 5 | > 5 | – | – | Cn1cc(-c2cccc([C@@]3(C)C4=C(CC(C)(C)CC4=O)Nc4n[nH]c(CC(C)(C)C)c43)c2)cn1 [Compound 126367] | – |
| > 5 | > 5 | – | – | CC(C)(C)Cc1[nH]nc2c1[C@@](C)(c1cccc(S(=O)(=O)C(F)(F)F)c1)C1=C(CC(C)(C)CC1=O)N2 [Compound 126396] | – |
| 1 to 5 | > 5 | – | – | CC1(C)CC(=O)C2=C(C1)Nc1n[nH]c(C3CC(F)(F)C3)c1C21COc2ccccc21 (stereo not shown) [Compound 127429] | – |
| – | – | > 5 | 0.1 to 1 | CC1(C)CC(=O)C2=C(C1)Nc1n[nH]cc1C2(C)c1cc(F)cc(F)c1 (stereo not shown) [Compound 785735] | – |
| – | – | 0.1 to 1 | ≤ 0.1 | Cc1cccc(C2(C)C3=C(CC(C)(C)CC3=O)Nc3n[nH]cc32)c1 (stereo not shown) [Compound 785736] | – |
| – | – | 0.1 to 1 | ≤ 0.1 | CCC1(c2ccccc2)C2=C(CC3(CCCC3)CC2=O)Nc2n[nH]cc21 (stereo not shown) [Compound 785737] | – |
| – | – | > 5 | 0.1 to 1 | CCC1(c2ccc(C)cc2)C2=C(CC(C)(C)CC2=O)Nc2n[nH]cc21 (stereo not shown) [Compound 785739] | – |
| – | – | 0.1 to 1 | 0.1 to 1 | CC[C@@]1(c2ccccc2)C2=C(C[C@@H](C)CC2=O)Nc2n[nH]cc21 [Compound 789010] | – |
| – | – | 0.1 to 1 | ≤ 0.1 | CC1(C)CC(=O)C2=C(C1)Nc1n[nH]cc1C2(C)c1cccc(Br)c1 (stereo not shown) [Compound 789277] | – |
| – | – | 0.1 to 1 | ≤ 0.1 | CCC1(c2cccc(Br)c2)C2=C(CC(C)(C)CC2=O)Nc2n[nH]cc21 (stereo not shown) [Compound 789312] | – |
| – | – | 1 to 5 | 0.1 to 1 | CCC1(c2ccccc2)C2=C(CC3(CC3)CC2=O)Nc2n[nH]cc21 (stereo not shown) [Compound 789330] | – |

From patent US20250313563A1, “GLYCOGEN SYNTHASE KINASE 3 INHIBITORS AND USES THEREOF” (The Broad Institute, Inc., priority 2022, published 2025)
